Results reported in US20230382925A1, “MODULATORS OF CYSTIC FIBROSIS TRANSMEMBRANE CONDUCTANCE REGULATOR” (VERTEX PHARMACEUTICALS INCORPORATED, priority 2020, published 2023).

Key:
[1] = target: T1, CFTR (Homo sapiens, UniProt P13569); assay: Membrane Potential Dye, Enteroid Assay B; type: cell-based; conditions: for EC50: read-out: Ent. B EC50
Summary of the method: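 Human intestinal enteroid cells exposed to compound 18-24 h at 37 °C, then loaded with methyl oxonol membrane-potential dye plus CaCC blockers. Chloride transport triggered in chloride-free buffer with 10 μM forskolin, 100 μM IBMX, 300 nM Compound III; fluorescence read 15 min, expressed as % of triple-corrector/potentiator combination control.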

[2] = target: T1, CFTR; assay: Membrane Potential Dye, Enteroid Assay A; type: cell-based; conditions: for EC50: read-out: Ent. A EC50
Experimental: Base medium (ADF+++) consisted of Advanced […], 2 mM Glutamax, 10 mM HEPES, 1 μg/mL penicillin/streptomycin.
Intestinal enteroid maintenance medium (IEMMN) consisted of ADF+++, 1× B27 supplement, 1× N2 supplement, 1.25 mM N-acetyl cysteine, 10 mM Nicotinamide, 50 ng/mL hEGF, 10 nM Gastrin, 1 μg/mL hR-spondin-1, 100 ng/mL hNoggin, TGF-b type 1 inhibitor A-83-01, 100 μg/mL Primocin, 10 μM P38 MAPK inhibitor SB202190.
Bath 1 Buffer consisted of 1 mM MgCl2, 160 mM NaCl, 4.5 mM KCl, 10 mM HEPES, 10 mM Glucose, 2 mM CaCl2).
Chloride Free Buffer consisted of 1 mM Magnesium Gluconate, 2 mM Calcium Gluconate, 4.5 mM Potassium Gluconate, 160 mM Sodium Gluconate, 10 mM HEPES, 10 mM Glucose.
Bath 1 Dye Solution consisted of Bath 1 Buffer, 0.04% Pluronic F127, 20 μM Methyl Oxonol, 30 μM CaCCinh-A01, 30 μM Chicago Sky Blue.
Chloride Free Dye Solution consisted of Chloride Free Buffer, 0.04% Pluronic F127, 20 μM Methyl Oxonol, 30 μM CaCCinh-A01, 30 μM Chicago Sky Blue.
Chloride Free Dye Stimulation Solution consisted of Chloride Free Dye Solution, 10 μM forskolin, 100 μM IBMX, and 300 nM Compound III.
Human intestinal epithelial enteroid cells were obtained from the Hubrecht Institute for Developmental Biology and Stem Cell Research, Utrecht, The Netherlands and expanded in T-Flasks as previously described (Dekkers J F, Wiegerinck C L, de Jonge H R, Bronsveld I, Janssens H M, de Winter-de Groot K M, Brandsma A M, de Jong N W M, Bijvelds M J C, Scholte B J, Nieuwenhuis E E S, van den Brink S, Clevers H, van der Ent C K, Middendorp S and M Beekman J M. A functional CFTR assay using primary cystic fibrosis intestinal organoids. Nat Med. 2013 July; 19(7):939-45.).
3. Enteroid Cell Harvesting and Seeding
Cells were recovered in cell recovery solution, collected by centrifugation at 650 rpm for 5 min at 4° C., resuspended in TrypLE and incubated for 5 min at 37° C. Cells were then collected by centrifugation at 650 rpm for 5 min at 4° C. and resuspended in IEMM containing 10 μM ROCK inhibitor (RI). The cell suspension was passed through a 40 μm cell strainer and resuspended at 1×10^6 cells/mL in IEMM containing 10 μM RI. Cells were seeded at 5000 cells/well into multi-well plates and incubated for overnight at 37° C., 95% humidity and 5% CO2 prior to assay.
4. Membrane Potential Dye, Enteroid Assay A
Enteroid cells were incubated with test compound in IEMM for 18-24 hours at 37° C., 95% humidity and 5% CO2. […] Briefly, cells were washed 5 times in Bath 1 Buffer. Bath 1 Dye Solution was added, and the cells were incubated for 25 min at room temperature. Following dye incubation, cells were washed 3 times in Chloride Free Dye Solution. Chloride transport was initiated by addition of Chloride Free Dye Stimulation Solution and the fluorescence signal was read for 15 min. […] Chloride transport was then expressed as a percentage of the chloride transport following treatment with 3 μM N-[(6-amino-2-pyridyl)sulfonyl]-6-(3-fluoro-5-isobutoxy-phenyl)-2-[(4S)-2,2,4-trimethylpyrrolidin-1-yl]pyridine-3-carboxamide, 3 μM (R)-1-(2,2-difluorobenzo[d][1,3]dioxol-5-yl)-N-(1-(2,3-dihydroxypropyl)-6-fluoro-2-(1-hydroxy-2-methylpropan-2-yl)-1H-indol-5-yl)cyclopropanecarboxamide and 300 nM acute N-[2,4-bis(1,1-dimethylethyl)-5-hydroxyphenyl]-1,4-dihydro-4-oxoquinoline-3-carboxamide triple combination control (% Activity).

T1 sequence (P13569 with tags, fused parts or gaps DEL508-508): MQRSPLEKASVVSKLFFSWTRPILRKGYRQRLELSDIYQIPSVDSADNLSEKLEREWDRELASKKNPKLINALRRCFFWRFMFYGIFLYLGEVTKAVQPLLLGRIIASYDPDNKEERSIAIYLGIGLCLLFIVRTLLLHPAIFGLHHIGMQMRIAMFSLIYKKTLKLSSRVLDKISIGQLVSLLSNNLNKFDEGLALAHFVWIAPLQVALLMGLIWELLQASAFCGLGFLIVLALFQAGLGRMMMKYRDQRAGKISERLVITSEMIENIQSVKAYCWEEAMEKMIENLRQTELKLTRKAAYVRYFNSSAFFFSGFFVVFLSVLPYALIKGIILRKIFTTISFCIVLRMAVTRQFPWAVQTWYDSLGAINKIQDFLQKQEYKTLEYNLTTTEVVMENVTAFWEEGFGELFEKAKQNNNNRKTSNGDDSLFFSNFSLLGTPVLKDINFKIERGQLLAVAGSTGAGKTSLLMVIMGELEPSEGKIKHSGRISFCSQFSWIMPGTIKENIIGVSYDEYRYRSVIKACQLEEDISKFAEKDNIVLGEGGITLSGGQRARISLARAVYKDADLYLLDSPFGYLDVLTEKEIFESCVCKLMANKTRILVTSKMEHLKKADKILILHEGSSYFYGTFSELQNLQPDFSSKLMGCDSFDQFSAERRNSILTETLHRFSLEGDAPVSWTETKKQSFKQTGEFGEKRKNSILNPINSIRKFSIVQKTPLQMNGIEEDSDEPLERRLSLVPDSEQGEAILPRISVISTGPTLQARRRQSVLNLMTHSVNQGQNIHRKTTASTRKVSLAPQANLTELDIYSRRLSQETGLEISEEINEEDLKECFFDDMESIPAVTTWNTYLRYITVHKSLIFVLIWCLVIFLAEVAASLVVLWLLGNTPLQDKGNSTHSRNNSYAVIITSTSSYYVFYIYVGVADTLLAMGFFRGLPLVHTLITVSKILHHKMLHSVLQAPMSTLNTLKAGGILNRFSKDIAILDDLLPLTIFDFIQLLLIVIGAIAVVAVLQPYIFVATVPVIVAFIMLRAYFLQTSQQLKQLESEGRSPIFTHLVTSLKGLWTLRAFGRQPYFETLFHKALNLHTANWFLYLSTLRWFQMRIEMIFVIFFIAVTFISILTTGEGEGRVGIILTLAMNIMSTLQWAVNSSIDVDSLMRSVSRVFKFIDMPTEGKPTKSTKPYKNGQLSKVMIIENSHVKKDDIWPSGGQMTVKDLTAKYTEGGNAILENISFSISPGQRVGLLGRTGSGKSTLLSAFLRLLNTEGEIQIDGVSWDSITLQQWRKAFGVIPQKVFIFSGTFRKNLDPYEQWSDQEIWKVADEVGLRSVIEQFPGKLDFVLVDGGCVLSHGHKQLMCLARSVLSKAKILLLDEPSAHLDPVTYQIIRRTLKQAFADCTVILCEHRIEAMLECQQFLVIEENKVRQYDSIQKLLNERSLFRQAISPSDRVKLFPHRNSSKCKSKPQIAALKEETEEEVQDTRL

SMILES | Ent. B Max Activity (%) [1] | EC50 [1] [nM] | Ent. A Max Activity (%) [2] | EC50 [2] [nM]
Cc1cccc(C)c1-c1cc2nc(n1)NS(=O)(=O)c1cccc(c1)C(=O)N([C@H]1C[C@@H](C#N)C1)[C@H](CC(C)C)CO2 (stereo in doubt) [Compound 469] | +++ (+++ is >60%) | < 1000 | +++ (+++ is >60%) | < 1000
CC(=O)N1C[C@H]2C[C@H](N3C(=O)c4cccc(c4)S(=O)(=O)Nc4nc(cc(-c5c(C)cccc5C)n4)OC[C@H]3CC(C)C)C[C@H]2C1 [Compound 336] |  |  | ++ (++ is 30-60%) | < 1000
Cc1cccc(C)c1-c1cc2nc(n1)NS(=O)(=O)c1cccc(c1)C(=O)N(C1CC3(CCN(C[C@H](O)CO)CC3)C1)[C@H](CC(C)C)CO2 [Compound 341] |  |  | +++ (+++ is >60%) | < 1000
Cc1cccc(C)c1-c1cc2nc(n1)NS(=O)(=O)c1cccc(c1)C(=O)N([C@H]1CC3(C[C@H](C(=O)N(C)C)C3)C1)[C@H](CC(C)C)CO2 (stereo partly drawn) [Compound 342] |  |  | +++ (+++ is >60%) | < 1000
Cc1cccc(C)c1-c1cc2nc(n1)NS(=O)(=O)c1cccc(c1)C(=O)N(C1CC3(CC3)C1)[C@@H](CC1(C(F)(F)F)CC1)CO2 [Compound 351] |  |  | + (+ is <300%) | < 1000
COC(=O)N1CCC2(CC1)CC(N1C(=O)c3cccc(c3)S(=O)(=O)Nc3nc(cc(C4CCCCC4(C)C)n3)OC[C@H]1CC(C)C)C2 (stereo partly drawn) [Compound 395] |  |  | ++ (++ is 30-60%) | < 1000
COC(=O)N1CCC2(CC1)CC(N1C(=O)c3cccc(c3)S(=O)(=O)Nc3nc(cc(C4CCCCC4(C)C)n3)OC[C@H]1CC(C)C)C2 (stereo partly drawn) [Compound 396] |  |  | ++ (++ is 30-60%) | < 1000
CC(C)C[C@@H]1COc2cc(C3CCCCC3(C)C)nc(n2)NS(=O)(=O)c2cccc(c2)C(=O)N1C1CC2(CCNCC2)C1 (stereo partly drawn) [Compound 399] |  |  | +++ (+++ is >60%) | < 1000
CC(C)C[C@@H]1COc2cc(C3CCCCC3(C)C)nc(n2)NS(=O)(=O)c2cccc(c2)C(=O)N1C1CC2(CCN(C(=O)OC(C)(C)C)CC2)C1 (stereo partly drawn) [Compound 400] |  |  | ++ (++ is 30-60%) | < 1000
Cc1cccc(C)c1-c1cc2nc(n1)NS(=O)(=O)c1cccc(c1)C(=O)N(C1CCN(C)CC1)CCO2 [Compound 438] |  |  | + (+ is <300%) | 
Cc1cccc(C)c1-c1cc2nc(n1)NS(=O)(=O)c1cccc(c1)C(=O)N(C1CCOCC1)CCO2 [Compound 439] |  |  | +++ (+++ is >60%) | 3000 to 30000
CC(C)C[C@@H]1COc2cc(-c3ccccc3-c3ccccc3)nc(n2)NS(=O)(=O)c2cccc(c2)C(=O)N1C1CC2(CCN(C)CC2)C1 [Compound 471] |  |  | +++ (+++ is >60%) | < 1000

Further lines, results first:

Ent. B Max Activity (%) [1] | EC50 [1] [nM] | Ent. A Max Activity (%) [2] | EC50 [2] [nM] | SMILES
+++ (+++ is >60%) | < 1000 | +++ (+++ is >60%) | < 1000 | CNC(=O)[C@H]1CC2(C1)C[C@H](N1C(=O)c3cccc(c3)S(=O)(=O)Nc3nc(cc(-c4c(C)cccc4C)n3)OC[C@H]1CC(C)C)C2 (stereo in doubt) [Compound 346]
+++ (+++ is >60%) | < 1000 | +++ (+++ is >60%) | 3000 to 30000 | Cc1cccc(C)c1-c1cc2nc(n1)NS(=O)(=O)c1cccc(c1)C(=O)N(C1CC3(CCNCC3)C1)[C@H](CC(C)C)CO2 [Compound 14, (11R)-12-(7-Azaspiro[3.5]nonan-2-yl)-6-(2,6-dimethylphenyl)-11-isobutyl-2,2-dioxo-9-oxa-2λ^6-thia-3,5,12,19-tetrazatricyclo[12.3.1.14,8]nonadeca-1(18),4(19),5,7,14,16-hexaen-13-one]
+++ (+++ is >60%) | < 1000 | +++ (+++ is >60%) | < 1000 | Cc1cccc(C)c1-c1cc2nc(n1)NS(=O)(=O)c1cccc(c1)C(=O)N(C1CC3(CCN(C)CC3)C1)[C@H](CC(C)C)CO2 [Compound 15, (11R)-6-(2,6-Dimethylphenyl)-11-isobutyl-12-(7-methyl-7-azaspiro[3.5]nonan-2-yl)-2,2-dioxo-9-oxa-2λ^6-thia-3,5,12,19-tetrazatricyclo[12.3.1.14,8]nonadeca-1(18),4(19),5,7,14,16-hexaen-13-one]
+++ (+++ is >60%) | < 1000 | +++ (+++ is >60%) | < 1000 | CC(=O)N1CCC2(CC1)CC(N1C(=O)c3cccc(c3)S(=O)(=O)Nc3nc(cc(-c4c(C)cccc4C)n3)OC[C@H]1CC(C)C)C2 [Compound 16, (11R)-12-(7-Acetyl-7-azaspiro[3.5]nonan-2-yl)-6-(2,6-dimethylphenyl)-11-isobutyl-2,2-dioxo-9-oxa-2λ^6-thia-3,5,12,19-tetrazatricyclo[12.3.1.14,8]nonadeca-1(18),4(19),5,7,14,16-hexaen-13-one]
 |  | +++ (+++ is >60%) | < 1000 | COC(=O)N1CCC2(CC(N3C(=O)c4cccc(c4)S(=O)(=O)Nc4nc(cc(-c5c(C)cccc5C)n4)OC[C@H]3CC(C)C)C2)C1 (stereo partly drawn) [Compound 325]
 |  | +++ (+++ is >60%) | < 1000 | COC(=O)N1CCCC2(CC(N3C(=O)c4cccc(c4)S(=O)(=O)Nc4nc(cc(-c5c(C)cccc5C)n4)OC[C@H]3CC(C)C)C2)C1 (stereo partly drawn) [Compound 327]
 |  | +++ (+++ is >60%) | < 1000 | COC(=O)N1CCC2(CC(N3C(=O)c4cccc(c4)S(=O)(=O)Nc4nc(cc(-c5c(C)cccc5C)n4)OC[C@H]3CC(C)C)C2)C1 (stereo partly drawn) [Compound 328]
 |  | +++ (+++ is >60%) | < 1000 | Cc1cccc(C)c1-c1cc2nc(n1)NS(=O)(=O)c1cccc(c1)C(=O)N([C@H]1C[C@]3(CCN(C)C3)C1)[C@H](CC(C)C)CO2 [Compound 330]
 |  | +++ (+++ is >60%) | < 1000 | Cc1cccc(C)c1-c1cc2nc(n1)NS(=O)(=O)c1cccc(c1)C(=O)N([C@H]1C[C@]3(CCCCN3C)C1)[C@H](CC(C)C)CO2 [Compound 331]
 |  | +++ (+++ is >60%) | < 1000 | Cc1cccc(C)c1-c1cc2nc(n1)NS(=O)(=O)c1cccc(c1)C(=O)N([C@H]1C[C@]3(CCCN(C)C3)C1)[C@H](CC(C)C)CO2 [Compound 332]
 |  | ++ (++ is 30-60%) | < 1000 | CC(=O)N1CC2(CC(N3C(=O)c4cccc(c4)S(=O)(=O)Nc4nc(cc(-c5c(C)cccc5C)n4)OC[C@H]3CC(C)C)C2)C1 [Compound 335]
 |  | ++ (++ is 30-60%) | < 1000 | Cc1cccc(C)c1-c1cc2nc(n1)NS(=O)(=O)c1cccc(c1)C(=O)N(C1CC3(CCCCC3)C1)[C@H](CC(C)C)CO2 [Compound 338]
 |  | +++ (+++ is >60%) | < 1000 | Cc1cccc(C)c1-c1cc2nc(n1)NS(=O)(=O)c1cccc(c1)C(=O)N(C1CC3(CCCC3)C1)[C@H](CC(C)C)CO2 [Compound 339]
 |  | +++ (+++ is >60%) | < 1000 | Cc1cccc(C)c1-c1cc2nc(n1)NS(=O)(=O)c1cccc(c1)C(=O)N(C1CC3(CCN(CCC(C)(C)C)CC3)C1)[C@H](CC(C)C)CO2 [Compound 340]
 |  | +++ (+++ is >60%) | < 1000 | Cc1cccc(C)c1-c1cc2nc(n1)NS(=O)(=O)c1cccc(c1)C(=O)N(C1CCC(C)(C)C1)[C@H](CC(C)C)CO2 (stereo partly drawn) [Compound 348]
